{"source": "patent US20040235007A1", "about": "“Method for detecting negatively supercoiled DNA” (National Institute of Genetics, priority 2003, published 2004)", "key": {"[1]": {"test_system": "negative supercoils of DNA on salivary gland chromosomes", "test": "Staining of salivary gland chromosomes with biotinylated psoralen / Alexa 488-labeled streptavidin", "format": "cell-based, Drosophila melanogaster", "experimental": "(§1) Drosophila melanogaster Oregon R was grown at 18° C. According to the test protocol, some third-instar larvae were subjected to heat shock treatment; i.e., the larvae were collected in a polypropylene tube, and the tube was submerged in a 37° C. water bath for 10 minutes. Salivary glands were obtained through dissection of the larvae in a dissection buffer (10 mM HEPES-KOH (pH 7.6), 5 mM MgCl2, 5 mM KCl, 130 mM NaCl, 1% polyethylene glycol 6000). Also according to the test protocol, some of the salivary gland specimens were exposed to X-ray irradiation for 60 minutes at a dose rate of about 3 Gy/min (TORREX CABINET X-RAY SYSTEM Model TRX2800, Faxitron), whereby nicks were introduced into DNA.\nFour or five pairs of salivary glands were treated with a dissection buffer (40 μL) containing 0.01% digitonin and rinsed with a dissection buffer containing no digitonin. Subsequently, the resultant salivary glands were treated with a dissection buffer containing 0.2 ng/ml biotinylated psoralen for 10 minutes. […] Br-UTP was detected with anti-BrdU monoclonal antibody (Roche) and rhodamin-labeled anti-mouse IgG antibody.\nBiotinylated psoralen was detected with Alexa 488-labeled streptavidin (Molecular Probe). […] Fluoroimages were analyzed with a Carl Zeiss Axioplan 2 microscope and IP lab software.\nIn order to visualize negative supercoils of DNA on salivary gland chromosomes throughout the entire genome, we have extended the psoralen crosslinking protocol, using a protocol in which biotinylated psoralen is detected with fluorescence-labeled streptavidin. […] Biotinylated psoralen was detected with Alexa 488-labeled streptavidin. […] Such signals were not detected when the chromosomes had been treated with a psoralen-free buffer, or when the crbsslinking step was not performed after treatment with psoralen. […] When chromosomes had been irradiated with X-ray (180 Gy) before crosslinking with biotinylated psoralen to thereby introduce nicks into the DNA, psoralen signals which may otherwise appear in interbands and puffs were not detected (FIGS. 5A to 5C). […]"}, "hsp70-coding region": {"test_system": "hsp70-coding region", "test": "Southern analysis of psoralen crosslinking in salivary glands", "format": "cell-based, Drosophila melanogaster", "details": "heat-shocked salivary gland chromosomes treated with α-amanitin prior to the crosslinking step; FIG. 3 lanes 6 and 7", "experimental": "as §1\nApplication of heat shock and dissection of larvae were performed in a manner similar to those employed for staining. […]\nAfter electrophoresis, the gel was incubated with a denaturing solution (0.5M NaOH, 1.5M NaCl) at 65° C. for 100 minutes for reverse crosslinking of DNA with psoralen. […] Hybridization signals were detected by use of X-ray film. […]\nThe protocol will be described briefly as follows. […] The DNA fragments were blotted onto a nylon membrane. hsp70 located at 87A7 (FIG. 1, CRs and DDS) was analyzed using probes through the Southern method. […]"}, "[2]": {"details": "heat shocked larvae, α-amanitin treatment prior to crosslinking, FIGS. 7D to 7F"}}}
{"substance": "α-Amanitin", "values": [{"measurement": "configuration of heat shock puffs", "setting": "[1]; [2]", "value": "did not affect"}, {"measurement": "psoralen signals in heat shock puffs", "setting": "[1]; [2]", "value": "not detected"}, {"measurement": "psoralen signals in interbands and puffs", "setting": "[1]; non-heat shocked, 3 μg/mL α-amanitin before crosslinking with biotinylated psoralen, FIGS. 5D and 5E", "value": "undetected"}, {"measurement": "crosslink-related signals (psoralen crosslinking, Southern)", "setting": "hsp70-coding region", "value": "substantially no crosslink-related signals were detected"}]}
